The source of these data is US20130184280A1, “SUBSTITUTED THIAZOLES AS VEGFR2 KINASE INHIBITORS” (TELIK, INC., priority 2011, published 2013).

Test system in the first data set: not listed separately
The experiment in a line: In Vitro Cytotoxicity Assay HL60 (CellTiter-Glo). The format is cell-based. To be noted: human, HL60 promyelocytic leukemia cells; HL 60 cells, cultured three days. The method, then:
(§1) The cell lines HL60 (human promyelocytic leukemia) and HCT116 (human colon carcinoma) were obtained from the American Type Culture Collection, Manassas, Va., U.S.A. All products were used in accordance with manufacturer's directions. The cytotoxicity assays were conducted in triplicate, in each case with solvent control.
(§2) Log-phase cells were trypsinized, collected by centrifugation, and resuspended in a small volume of fresh medium, and the density of viable cells was determined following Trypan Blue staining Cells were diluted in fresh media, the test compounds (concentrations between 0.1 μM and 200 μM, dissolved in DMSO, 50 μL) added immediately after dilution to achieve a final DMSO concentration of 0.5%, then the suspensions added at 150 μL/well to 96-well plates, and incubated overnight to allow attachment in the case of adherent cells. The cells were cultured for three days (about three doubling times). The cells were then collected by centrifugation, and 100 μL of the culture supernatant was replaced by the CellTiter-Glo reagent. After incubation for 15 minutes at room temperature, the plate was read with a luminometer. […] The table gives cytotoxicity IC50s in μm.
In turn, `Nc1ncncc1-c1nc(-c2cccc(NC(=O)c3ccccc3)c2)cs1` [Compound 3] came in with an IC50 at 3 days of 3 µM.

`Nc1ncncc1-c1nc(-c2cccc(NC(=O)c3ccc(-c4ccccc4)cc3)c2)cs1` [Compound 15] showed an IC50 at 3 days of 1 µM.

As for `Nc1ncncc1-c1nc(-c2cccc(NC(=O)Nc3cccc(CN4CCOCC4)c3)c2)cs1` [Compound 46], the IC50 at 3 days is 0.7 µM.

`COc1ccc(NC(=O)Nc2cccc(-c3csc(-c4cncnc4N)n3)c2)cc1` [Compound 14] gave an IC50 at 3 days of 0.3 µM.

`Cc1cccc(NC(=O)Nc2cccc(-c3csc(-c4cncnc4N)n3)c2)c1` [Compound 17, 1-(3-(2-(4-aminopyrimidin-5-yl)thiazol-4-yl)phenyl)-3-m-tolylurea] yielded an IC50 at 3 days of 0.3 µM.

The molecule `Nc1ncncc1-c1nc(-c2cccc(NC(=O)NC3CCCCC3)c2)cs1` [Compound 65] yielded a half-maximal inhibitory concentration (IC50) at 3 days of 1 µM.

`Nc1ncncc1-c1nc(-c2cccc(NC(=O)c3ccccn3)c2)cs1` [Compound 21] came in with an IC50 at 3 days of 4 µM.

Molecule `COc1ccccc1NC(=O)Nc1cccc(-c2csc(-c3cncnc3N)n2)c1` [Compound 26] returned an IC50 at 3 days of 0.4 µM.

Take `Nc1ncncc1-c1nc(-c2cccc(NC(=O)Nc3ccc(F)c(C(F)(F)F)c3)c2)cs1` [Compound 10]: the IC50 at 3 days came out at 0.5 µM.

Regarding `Nc1ncncc1-c1nc(-c2cccc(NC(=O)c3cccc(Cl)c3)c2)cs1` [Compound 6, N-(3-(2-(4-aminopyrimidin-5-yl)thiazol-4-yl)phenyl)-3-chlorobenzamide], the IC50 at 3 days came out at 3 µM.

Another data set relates to HCT116 (human colon carcinoma). The experiment in a line: In Vivo HCT116 Xenograft Model. As to conditions: 30 mg/Kg intraperitoneally once/day on days 1-5 and 8-12; measured 2 days after last treatment; athymic nu/nu mice.
For `Nc1ncncc1-c1nc(-c2cccc(NC(=O)c3ccccc3)c2)cs1` [Compound 3], the Tumor growth inhibition entry is given as “showed inhibition of tumor growth compared to vehicle”.

On to `Nc1ncncc1-c1nc(-c2cccc(NC(=O)Nc3cccc(CN4CCOCC4)c3)c2)cs1` [Compound 46], for which the Tumor growth inhibition entry was “showed inhibition of tumor growth compared to vehicle”.

Take `Cc1cccc(NC(=O)Nc2cccc(-c3csc(-c4cncnc4N)n3)c2)c1` [Compound 17, 1-(3-(2-(4-aminopyrimidin-5-yl)thiazol-4-yl)phenyl)-3-m-tolylurea]: the Tumor growth inhibition entry is listed as “showed inhibition of tumor growth compared to vehicle”.

The data set is the same for the next values; noted with them: administered orally; athymic nu/nu mice.
Take `Nc1ncncc1-c1nc(-c2cccc(NC(=O)Nc3cccc(CN4CCOCC4)c3)c2)cs1` [Compound 46]: the Tumor growth inhibition entry is on record as “showed inhibition of tumor growth when administered orally”.

Test system in a further data set: not listed separately
The experiment in a line: In Vitro Cytotoxicity Assay HCT116 (CellTiter-Glo). The format is cell-based. To be noted: human, HCT116 colon carcinoma cells, cultured three days. The method, then:
as §1, §2
`Nc1ncncc1-c1nc(-c2cccc(NC(=O)c3ccccc3)c2)cs1` [Compound 3] showed an IC50 at 3 days of 20 µM. This lies in the double-digit micromolar range.

In the case of `Nc1ncncc1-c1nc(-c2cccc(NC(=O)c3ccc(-c4ccccc4)cc3)c2)cs1` [Compound 15], half-maximal inhibition (IC50 at 3 days) required 3 µM.

With `Nc1ncncc1-c1nc(-c2cccc(NC(=O)Nc3cccc(CN4CCOCC4)c3)c2)cs1` [Compound 46], it took 8 µM to reach half-maximal inhibition (IC50 at 3 days). This IC50 at 3 days lies about 2.7-fold higher than the previous one.

`COc1ccc(NC(=O)Nc2cccc(-c3csc(-c4cncnc4N)n3)c2)cc1` [Compound 14]: the midpoint of inhibition, the IC50 at 3 days, lay at 20 µM.

The molecule `Cc1cccc(NC(=O)Nc2cccc(-c3csc(-c4cncnc4N)n3)c2)c1` [Compound 17, 1-(3-(2-(4-aminopyrimidin-5-yl)thiazol-4-yl)phenyl)-3-m-tolylurea] gave an IC50 at 3 days of 1 µM. Compared with the last molecule, the IC50 at 3 days is about 20-fold lower.

The molecule `Nc1ncncc1-c1nc(-c2cccc(NC(=O)NC3CCCCC3)c2)cs1` [Compound 65] registered an IC50 at 3 days of 8 µM. This IC50 at 3 days is about 8-fold higher than that of the molecule before.

`Nc1ncncc1-c1nc(-c2cccc(NC(=O)c3ccccn3)c2)cs1` [Compound 21] came in with an IC50 at 3 days above 50 µM.

`COc1ccccc1NC(=O)Nc1cccc(-c2csc(-c3cncnc3N)n2)c1` [Compound 26] showed a concentration for half-maximal inhibition (IC50) at 3 days of 7 µM.

For `Nc1ncncc1-c1nc(-c2cccc(NC(=O)Nc3ccc(F)c(C(F)(F)F)c3)c2)cs1` [Compound 10], the midpoint of inhibition, the IC50 at 3 days, lay at 2 µM.

As for `Nc1ncncc1-c1nc(-c2cccc(NC(=O)c3cccc(Cl)c3)c2)cs1` [Compound 6, N-(3-(2-(4-aminopyrimidin-5-yl)thiazol-4-yl)phenyl)-3-chlorobenzamide], the IC50 at 3 days is above 50 µM.

The next data set deals with T1, VEGFR2 kinase (Homo sapiens, UniProt P35968).
T1 construct: purchased InVitrogen
T1 sequence (P35968 20-1356): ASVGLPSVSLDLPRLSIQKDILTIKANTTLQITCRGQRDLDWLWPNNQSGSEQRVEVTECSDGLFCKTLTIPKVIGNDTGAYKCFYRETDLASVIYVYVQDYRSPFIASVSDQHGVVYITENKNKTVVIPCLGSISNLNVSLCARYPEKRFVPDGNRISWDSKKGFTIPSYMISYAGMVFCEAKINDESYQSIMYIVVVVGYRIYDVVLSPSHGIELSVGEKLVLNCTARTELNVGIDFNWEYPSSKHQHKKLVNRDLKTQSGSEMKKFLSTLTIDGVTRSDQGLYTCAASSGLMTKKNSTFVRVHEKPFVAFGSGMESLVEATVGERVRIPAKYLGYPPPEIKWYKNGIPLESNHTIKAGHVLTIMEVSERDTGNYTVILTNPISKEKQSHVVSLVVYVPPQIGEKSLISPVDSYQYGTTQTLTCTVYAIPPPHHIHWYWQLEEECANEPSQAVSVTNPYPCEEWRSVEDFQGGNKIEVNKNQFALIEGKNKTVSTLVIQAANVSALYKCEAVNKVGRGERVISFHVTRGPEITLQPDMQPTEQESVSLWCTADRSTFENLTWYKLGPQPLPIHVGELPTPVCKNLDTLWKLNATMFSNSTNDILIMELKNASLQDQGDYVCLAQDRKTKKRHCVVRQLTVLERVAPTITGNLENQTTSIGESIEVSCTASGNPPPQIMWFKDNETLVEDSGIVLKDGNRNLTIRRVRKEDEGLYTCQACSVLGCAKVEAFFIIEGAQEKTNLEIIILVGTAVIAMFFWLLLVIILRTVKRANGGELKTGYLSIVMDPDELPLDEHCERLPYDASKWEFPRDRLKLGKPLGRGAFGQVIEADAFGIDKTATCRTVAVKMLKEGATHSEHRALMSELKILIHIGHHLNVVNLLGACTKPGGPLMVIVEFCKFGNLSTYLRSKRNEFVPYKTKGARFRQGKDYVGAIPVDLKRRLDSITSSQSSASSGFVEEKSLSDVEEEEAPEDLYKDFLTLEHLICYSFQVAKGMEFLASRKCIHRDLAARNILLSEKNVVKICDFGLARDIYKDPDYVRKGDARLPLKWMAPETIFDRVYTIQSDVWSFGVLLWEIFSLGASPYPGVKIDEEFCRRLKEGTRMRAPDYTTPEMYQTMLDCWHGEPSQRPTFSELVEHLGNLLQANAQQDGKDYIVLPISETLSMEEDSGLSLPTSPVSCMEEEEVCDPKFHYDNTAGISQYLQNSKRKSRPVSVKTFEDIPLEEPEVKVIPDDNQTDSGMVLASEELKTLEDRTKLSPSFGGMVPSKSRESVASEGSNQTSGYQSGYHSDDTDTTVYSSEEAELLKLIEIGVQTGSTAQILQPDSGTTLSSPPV
The experiment in a line: In Vitro VEGFR2 Kinase Assay. The format is biochemical. As to conditions: FP; CSKtide substrate, 60 minutes at room temperature. On the procedure:
In Vitro VEGFR2 Kinase Assay
50 ng/well VEGFR2 kinase (from InVitrogen) was mixed in buffer (14.5 μL/well). To this were added, 0.5 μL of the compound of this invention at a concentration of 2.5% in DMSO. After incubatiuon for 5 minutes at room temperature, 5 μL of substrate (CSKtide, 400 nM) and 8 μL ATP were added. The mixture was incubated for 60 minutes at room temperature and 60 uL of binding reagent (beads) was added. After incubation overnight at room temperature, the plate was read with a LJL plate reader.
`Nc1ncncc1-c1nc(-c2cccc(NC(=O)c3ccccc3)c2)cs1` [Compound 3]: the IC50 stood at 20 nM.

Molecule `Nc1ncncc1-c1nc(-c2cccc(NC(=O)c3ccc(-c4ccccc4)cc3)c2)cs1` [Compound 15] registered an IC50 of 400 nM.

Molecule `Nc1ncncc1-c1nc(-c2cccc(NC(=O)Nc3cccc(CN4CCOCC4)c3)c2)cs1` [Compound 46] had an IC50 of 20 nM.

As for `COc1ccc(NC(=O)Nc2cccc(-c3csc(-c4cncnc4N)n3)c2)cc1` [Compound 14], the half-maximal inhibitory concentration (IC50) was 30 nM.

On to `Cc1cccc(NC(=O)Nc2cccc(-c3csc(-c4cncnc4N)n3)c2)c1` [Compound 17, 1-(3-(2-(4-aminopyrimidin-5-yl)thiazol-4-yl)phenyl)-3-m-tolylurea], for which it took 10 nM to reach half-maximal inhibition (IC50).

As for `Nc1ncncc1-c1nc(-c2cccc(NC(=O)NC3CCCCC3)c2)cs1` [Compound 65], inhibition was half-maximal at 40 nM (IC50).

In turn, `Nc1ncncc1-c1nc(-c2cccc(NC(=O)c3ccccn3)c2)cs1` [Compound 21] registered an IC50 of 200 nM.

With `COc1ccccc1NC(=O)Nc1cccc(-c2csc(-c3cncnc3N)n2)c1` [Compound 26], it took 40 nM to reach half-maximal inhibition (IC50).

The molecule `Nc1ncncc1-c1nc(-c2cccc(NC(=O)Nc3ccc(F)c(C(F)(F)F)c3)c2)cs1` [Compound 10] had an IC50 of 20 nM.

Take `Nc1ncncc1-c1nc(-c2cccc(NC(=O)c3cccc(Cl)c3)c2)cs1` [Compound 6, N-(3-(2-(4-aminopyrimidin-5-yl)thiazol-4-yl)phenyl)-3-chlorobenzamide]: inhibition was half-maximal at 20 nM (IC50).
